Three compounds from publication PMC7894860, “Molecular dynamics investigation of the interaction between Colletotrichum capsici cutinase and berberine suggested a mechanism for reduced enzyme activity” (PLoS ONE, 2021) can be followed below.

Experiment [1] concerns the target T1, cutinase from Colletotrichum capsici (Colletotrichum truncatum, UniProt P10951).
T1 construct: gene CUTA; purchased recombinant protein
Description: turbidimetric hydrolysis assay (OD630). The conditions noted are these: 30°C; substrate emulsion in 25 mM potassium phosphate pH 8.0, 0.5% gum arabic. The class given is biochemical.

Experiment [2] addresses T1, cutinase from Colletotrichum capsici. Description: turbidimetric ester hydrolysis assay (OD630). The format is biochemical. The conditions noted are these: read-out: relative activity at 500 μg/ml berberine.

T1 sequence (P10951 17-228): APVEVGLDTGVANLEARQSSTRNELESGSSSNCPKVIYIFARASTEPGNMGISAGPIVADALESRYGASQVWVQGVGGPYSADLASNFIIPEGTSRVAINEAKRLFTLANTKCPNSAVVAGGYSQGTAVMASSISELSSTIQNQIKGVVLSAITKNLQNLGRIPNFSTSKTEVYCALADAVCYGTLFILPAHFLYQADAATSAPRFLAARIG

For the compound `CCCCCCCC(=O)OCC(COC(=O)CCCCCCC)OC(=O)CCCCCCC` [Glyceryl trioctanoate], the “turbidimetric hydrolysis assay (OD630)” value in experiment [1] is “larger reduced enzyme activities for longer chain substrates glyceryl trioctanoate and isopropyl myristate”.

`CCCC(=O)OCC(COC(=O)CCC)OC(=O)CCC` [Tributyrin]: the “turbidimetric hydrolysis assay (OD630)” value in experiment [1] was “For short chain substrate tributyrin, berberine conferred slight decrease of relative activity”.

With `COc1ccc2cc3[n+](cc2c1OC)CCc1cc2c(cc1-3)OCO2` [berberine], the activity at 500 µg/mL in experiment [2] amounted to 78%.
